Data: paper PMC4471902, “Block of NMDA receptor channels by endogenous neurosteroids: implications for the agonist induced conformational states of the channel vestibule” (Scientific Reports, 2015)
“And” between values parts separate entries of the source, which are not always exact repeats. Equal entries are not always repeated. Structures can show the parent of a compound that is named as a salt.

How the values were obtained:
GluN1ΔN/GluN2BΔN = molecular target: T1, GluN1ΔN/GluN2BΔN (Rattus norvegicus, UniProt P35439+Q00960, DEL32-386); assay: Whole-cell patch-clamp of N-terminal truncated NMDARs in HEK293 cells; format: cell-based; conditions: 1 mM glutamate, PA-S 50 µM
T1 construct: expressed in transfected cells; host or cells: HEK293
From the text: (§1) Human embryonic kidney (HEK293) cells were transfected with expression vectors containing: GluN1–1a (GenBank accession number U08261)[52]; GluN2B (GenBank accession number M91562); GluN1-4a(F484A), (generous gift from Dr. J. J. Woodward)[53] (Smothers & Woodward, 2009); GluN3A (generous gift from Dr. S. A. Lipton)[54] (GenBank accession number NM_138546); GluN1ΔN with deleted 354 amino acids in the NTD (32 to 386); GluN1ΔC with an introduced stop codon in 838 of the CTD GluN2BΔN) with deleted 354 amino acids in the NTD (32 to 386); GluN2BΔC with an introduced stop codon in 844 of the CTD[55]; GluR0 (GenBank accession number Synechocystis PCC 6803) (generous gift from Dr. M. L. Mayer)[18]; and green fluorescent protein (GFP) (pQBI 25, Takara, Tokyo, Japan) genes, as described previously. The Quick-Change site-directed mutagenesis kit (Agilent Technologies, Santa Clara, CA, USA) was used to generate specific point mutations in the M1/M3 region according to the manufacturer’s instructions using manually designed primers purchased from Sigma. Modified DNA plasmids were transformed into competent XL10-Gold E.coli cells, positive clones were selected, and isolated DNA was sequenced. […]
(§2) The IC50 was determined from a single dose of a steroid using the formula [drawing 1] where I is the relative degree of inhibition and [steroid] is the steroid concentration used. […]

GluN2B(Y646A) = molecular target: T2, GluN2B(Y646A) (Rattus norvegicus, UniProt P35439+Q00960, Y646A); assay: Whole-cell patch-clamp of GluN1/GluN2B(Y646A) receptor responses in HEK293 cells; format: cell-based
T2 construct: expressed in transfected cells; host or cells: HEK293
T2 sequence (Q00960 27-1482 Y646A, other chains not shown): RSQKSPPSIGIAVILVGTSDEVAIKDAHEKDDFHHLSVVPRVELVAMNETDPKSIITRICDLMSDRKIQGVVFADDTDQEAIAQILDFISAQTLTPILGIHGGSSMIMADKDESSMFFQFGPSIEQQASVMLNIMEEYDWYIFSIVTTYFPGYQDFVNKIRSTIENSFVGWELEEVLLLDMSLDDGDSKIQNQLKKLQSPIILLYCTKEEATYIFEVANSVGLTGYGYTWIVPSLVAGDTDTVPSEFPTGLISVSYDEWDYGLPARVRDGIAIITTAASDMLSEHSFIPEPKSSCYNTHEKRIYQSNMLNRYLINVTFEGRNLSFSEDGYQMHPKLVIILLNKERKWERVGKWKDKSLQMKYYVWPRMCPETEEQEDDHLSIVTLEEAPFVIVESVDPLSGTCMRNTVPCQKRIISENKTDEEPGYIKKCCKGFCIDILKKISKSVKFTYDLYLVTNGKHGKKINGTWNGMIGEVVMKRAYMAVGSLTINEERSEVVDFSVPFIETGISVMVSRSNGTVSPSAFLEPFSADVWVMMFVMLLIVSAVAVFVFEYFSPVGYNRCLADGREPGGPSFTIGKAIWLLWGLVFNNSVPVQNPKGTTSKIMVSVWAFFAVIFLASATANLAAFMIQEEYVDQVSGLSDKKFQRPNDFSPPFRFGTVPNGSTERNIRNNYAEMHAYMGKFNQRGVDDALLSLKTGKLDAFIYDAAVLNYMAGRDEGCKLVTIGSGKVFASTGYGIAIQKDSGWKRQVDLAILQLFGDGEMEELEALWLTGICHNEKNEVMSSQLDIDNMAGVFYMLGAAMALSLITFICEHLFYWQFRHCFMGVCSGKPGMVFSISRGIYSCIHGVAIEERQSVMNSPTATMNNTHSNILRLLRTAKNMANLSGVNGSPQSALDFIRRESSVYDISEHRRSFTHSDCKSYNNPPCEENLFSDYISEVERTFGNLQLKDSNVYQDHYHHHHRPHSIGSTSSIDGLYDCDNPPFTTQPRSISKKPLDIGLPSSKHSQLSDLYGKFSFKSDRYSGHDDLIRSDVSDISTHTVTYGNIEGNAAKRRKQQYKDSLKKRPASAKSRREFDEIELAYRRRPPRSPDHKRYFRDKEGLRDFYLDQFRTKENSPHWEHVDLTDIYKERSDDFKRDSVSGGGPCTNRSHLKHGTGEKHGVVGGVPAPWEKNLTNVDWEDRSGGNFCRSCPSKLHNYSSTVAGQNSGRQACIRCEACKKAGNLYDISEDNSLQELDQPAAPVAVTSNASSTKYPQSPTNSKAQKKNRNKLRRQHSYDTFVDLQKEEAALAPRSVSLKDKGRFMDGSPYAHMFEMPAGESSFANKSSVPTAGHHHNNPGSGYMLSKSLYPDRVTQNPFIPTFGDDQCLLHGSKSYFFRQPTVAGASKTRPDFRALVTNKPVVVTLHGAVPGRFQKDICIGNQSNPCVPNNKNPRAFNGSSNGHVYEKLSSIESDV
From the text: as §1, §2

[1] = tested on: GluR0 (potassium-selective prokaryotic glutamate receptor); assay: Whole-cell patch-clamp of GluR0 receptor responses in transfected HEK293 cells; format: cell-based, Synechocystis PCC 6803; conditions: 1 mM glutamate, PA-S 300 µM
From the text: Human embryonic kidney (HEK293) cells were transfected with expression vectors containing: GluN1–1a (GenBank accession number U08261)[52]; GluN2B (GenBank accession number M91562); GluN1-4a(F484A), (generous gift from Dr. J. J. Woodward)[53] (Smothers & Woodward, 2009); GluN3A (generous gift from Dr. S. A. Lipton)[54] (GenBank accession number NM_138546); GluN1ΔN with deleted 354 amino acids in the NTD (32 to 386); GluN1ΔC with an introduced stop codon in 838 of the CTD GluN2BΔN) with deleted 354 amino acids in the NTD (32 to 386); GluN2BΔC with an introduced stop codon in 844 of the CTD[55]; GluR0 (GenBank accession number Synechocystis PCC 6803) (generous gift from Dr. M. L. Mayer)[18]; and green fluorescent protein (GFP) (pQBI 25, Takara, Tokyo, Japan) genes, as described previously. The Quick-Change site-directed mutagenesis kit (Agilent Technologies, Santa Clara, CA, USA) was used to generate specific point mutations in the M1/M3 region according to the manufacturer’s instructions using manually designed primers purchased from Sigma. Modified DNA plasmids were transformed into competent XL10-Gold E.coli cells, positive clones were selected, and isolated DNA was sequenced. […] All mutations were verified by DNA sequencing (Macrogen, Seoul, Korea or SeQme, Dobris, Czech Republic). […]

[2] = Light scattering analysis of particle size in ECS; format: physicochemical
Method: Light scattering (Zetasizer Nano ZS, Malvern Instruments, United Kingdom) was used to characterize particle size of PA-S in ECS. PA-S was dissolved in DMSO at a concentration of 20 mM and then in the ECS at a final concentration of 5 nM to 150 μM PA-S. This solution was sonicated (Ultrasonic Sonorex Super RK 103 H, Bandelin electronic GmbH & Co. KG, Germany) for 1 min. Light scattering analysis was repeated six times for each sample at 25 °C.

CC(=O)[C@H]1CC[C@H]2[C@@H]3CC[C@@H]4C[C@H](OS(=O)(=O)O)CC[C@]4(C)[C@H]3CC[C@]12C [PA-S, 20-oxo-5β-pregnan-3α-yl sulfate]
IC50 (GluN1ΔN/GluN2BΔN): 41 ± 2 µM | IC50 (GluN2B(Y646A)): 4.3 ± 0.7 µM | effect on glutamate-induced responses [1]: inhibited | PA-S concentration at which two particle sizes are present ([2]; ECS): > 300 nM | PA-S concentration at which two particle sizes were observed ([2]; ECS): ≥ 0.4 µM | small particle size (single steroid molecule) ([2]; ECS): ~ 2.5 nm | critical aggregate concentration (CAC) ([2]; ECS, 25 °C): ~ 300 nM and 300 nM | size of aggregates ([2]; ECS, concentrations relevant to effect at the NMDAR): ~ 400 nm | molecules present in the ECS in aggregates ([2]; at the PA-S concentration corresponding to its IC50 at NMDARs): 99.5%
